From US10149907B2, “Combinations of a photosensitizer with a hydrogen sulfide donor, thioredoxin inhibitor or nitroxide for use in photodynamic therapy” (UNIVERSITY OF EXETER, priority 2014, dated 2018)
Where two headings read alike, the source gives them in different places.

What was measured:
[1] = system: A431 cells; experiment: MAL-induced PpIX accumulation, fluorescence plate reader; assay type: cell-based, human; details: 10, 100 and 1000 nM 5 hours + MAL 1 mM 3 hours; FIG. 21, 22
Description: After treatment, the cells were washed with PBS and a final 100 μl PBS was pipetted into each well for fluorescence readings. The fluorescence of PpIX was measured using a BMG Pherastar plate reader with a 410 nm excitation filter and a 630 nm emission filter.
A431 cells were treated concurrently with slow-releasing hydrogen sulfide donors (1 μM) for 5 hours and MAL (1 mM) for 3 hours, after which PpIX accumulation was measured by fluorescence plate reader (excitation 410 nm, […]). Co-treatment with CP94 (50 μM) was used as a positive control and for comparison.

[2] = system: A431 cells; experiment: Mitochondrial reactive oxygen species generation during photodynamic irradiation, MitoSOX flow cytometry; assay type: cell-based, human; details: irradiated
Description: A431 cells were treated concurrently with AP39-C10 (10, 100 or 1000 nM) for 5 hours, MAL (1 mM) for 3 hours and MitoSOX (2.5 μM) for 1 hour, after which they were irradiated for 5 min (630 nm, 25 J/cm^2) and MitoSOX (mito-2-OH-E^+) fluorescence, indicative of mitochondrial oxidant production, was immediately analysed by flow cytometry. Results are set out in FIG. 23.
Mitochondria-targeted dihydroethidium (i.e. MitoSOX) was used to assess the production of mitochondrial reactive oxygen species (ROS) by PpIX photochemical reactions and to determine the effects of AP39-C10 on this process. All of the results are represented as a percentage of the untreated controls (100.0±8.5%). The fluorescence of the photoirradiated cells, which had been pre-treated with MAL, was 193.7±7.3% (p<0.001 c.f. untreated controls).

[3] = system: A431 cells; details: for tolerance over 72 hours: 0-1000 nM
Description: A431 cells were seeded at a density of 1×10^5 cells/ml in 96 well plates and incubated under 2% O2 for 48 h prior to treatment. After 24 h, the culture medium was replaced and the cells were placed back into the incubators under 2% O2. Following this incubation period, the culture medium was then removed and the plates were washed with PBS. The cells were then treated with 1 mM MAL in the absence or presence of one of the compounds of interest and then incubated again at 2% O2 for 3 h. For experiments carried out with SRHDs, this treatment step was carried out for 5 h at 2% O2. After treatment, the cells were washed with PBS, the culture medium was replaced and the cells were placed back under 2% O2 for 3 h. Following this final incubation, cell death was analysed using the resazurin viability assay.
Resazurin (7-hydroxy-3H-phenoxazin-3-one 0-oxide) is a weakly fluorescent blue dye used primarily in oxidation-reduction cell viability assays. Irreversible NADH-dependent reduction by the mitochondria in mammalian cells leads to the production of resorufin, a highly fluorescent product with excitation at 571 nm, emission at 585 nm.
A431 cells were seeded into 96 well plates at a density of 1.5*10^6 cells per ml (200 μl per well, 3*10^5 cells) and incubated for 24 h to adhere. Following incubation, the cells were washed and treated with the compound of interest for the relevant time, and then washed with PBS. […] After a 2 h incubation, the fluorescence of each well was measured (excitation: 571 nm, emission: 585 nm) using a fluorescence plate reader. Data from these experiments was plotted as a percentage of cell viability compared to untreated control cells.

[4] = system: A431 cells; experiment: cells; assay type: cell-based; details: for increase in cell killing compared to the use of MAL alone: 10 nM; for potency compared to CP94 (50 μM) exerting a similar degree of potentiation: 10 nM vs CP94 50 μM; for modes of cell death: 1 mM MAL + SRHD 10, 100 or 1000 nM + irradiation, FIG. 19
Description: A431 cells (human epithelial squamous cell carcinoma cells) were seeded at a density of 1×10^6 cells/ml in T12.5 cm^2 flasks and incubated under 2% O2 for 48 h prior to treatment. After 24 h, the culture medium was replaced and the cells were placed back into the incubators under 2% O2. Following this incubation period, the culture medium was then removed and the flasks were washed with PBS. The cells were then treated with one of the SRHDs and incubated at 2% O2 for 2 h, after which MAL was added to a final concentration of 1 mM and the cells were incubated at 2% O2 for 3 h. This meant in total, the cells were treated with the SRHDs for 5 h.
Following this final incubation, cell death was analysed by annexin V-FITC and propidium iodide staining in conjunction with flow cytometry.
Cell death analysis by flow cytometry was carried out using the annexin V-FITC/propidium iodide protocol. This protocol allows a quantitative assessment of cell death, particularly specific modes of death, and involves staining the cells with fluorescein isothiocyanate-conjugated annexin A5 (annexin V-FITC) and propidium iodide (PI). Positive staining with annexin V-FITC alone indicates an apoptotic cell; positive staining with PI alone indicates a necrotic cell and dual staining of both annexin V and PI indicates a “late apoptotic” cell.
From each flask being assessed, the old medium was removed and placed into a corresponding individual 15 ml Falcon tube in order to collect any cells that may have detached from the surface. The flask was washed once with 1 ml PBS; also deposited in the Falcon tubes. Trypsin (500 μl) was added to each flask and the flasks were returned to the incubator with their caps loosened. Cell detachment was monitored using an inverted light microscope, until 50% of the cells were detached. The flasks were then lightly tapped to detach the remainder of the cells. Medium (2 ml) was added to each flask in order to neutralise the trypsin present before being removed and dispensed into the Falcon tubes. One more wash with PBS was carried out in order to ensure any cells left in the flasks were collected. The Falcon tubes were then centrifuged at 490 g for 3 min, forming a pellet at the bottom of the tube. The supernatant was discarded, and the cells were re-suspended in 5 ml of PBS, in order to wash them, before being centrifuged again at 490 g for 3 min. […] The Falcon tubes were placed on ice and in the dark for 15 min to allow annexin V staining. […] The samples were then ready to be assessed by flow cytometry.
The following flow cytometry process of sample detection was used. When using annexin V-FITC and PI, the detectors being used were FL1 (λmax=520 nm) and FL3 (λmax=670 nm), respectively, each with their own logarithmic histogram generated by the software. The intensity of the fluorescence detected is measured on a logarithmic scale on the x-axis and the y-axis represents the number of cells detected at a given fluorescence intensity. A plot of FL1/FL3 produces a 4-quadrant graph, where unstained and untreated cells are located in the bottom left quadrant, representing any cells found in the 1st decade of the single plot logarithmic histograms. Single staining with annexin V-FITC and PI are located in the bottom right and top left quadrant, respectively, and dual staining is located in the top right quadrant. These quadrants represent any cells detected above the 1st decade of the logarithmic histograms.

[5] = MAL 1 mM + SRHD 10 nM (5 hours)
[6] = MAL 1 mM + SRHD 100 nM (5 hours)
[7] = MAL 1 mM + SRHD 1000 nM (5 hours)
[8] = 1 mM MAL + SRHD 10 nM (5 h) + irradiation, FIG. 18
[9] = 1 mM MAL + SRHD 100 nM (5 h) + irradiation, FIG. 18
[10] = 1 mM MAL + SRHD 1 μM (5 h) + irradiation, 3 h post-irradiation
[11] = 1 mM MAL + SRHD 1000 nM (5 h) + irradiation, FIG. 18
[12] = dark toxicity, without irradiation, SRHD 1 μM, 5 h, FIG. 1, 3

SMILES | effect on PpIX accumulation compared to 1 mM MAL [1] | MitoSOX fluorescence, percentage of untreated controls [2, 5] [%] | MitoSOX fluorescence, percentage of untreated controls [2, 6] [%] | MitoSOX fluorescence, percentage of untreated controls [2, 7] [%] | tolerance over 72 hours ([3]; 72 hours) | cell viability, percentage of untreated control ([3]; 1000 nM, 72 hours, FIG. 17) [%] | cell viability, percentage of untreated control ([3]; 500 μM, 5 hours, FIG. 15, 16) [%] | increase in cell killing compared to the use of MAL alone [4] [fold] | potency compared to CP94 (50 μM) exerting a similar degree of potentiation [4] [fold] | cell death [4, 8] [%] | cell death [4, 9] [%] | cell death [4, 10] [%] | cell death [4, 11] [%] | modes of cell death [4] | cell death [4, 12] [%]
O=C(CCCCCCCCC[P+](c1ccccc1)(c1ccccc1)c1ccccc1)Oc1ccc(-c2cc(=S)ss2)cc1 [AP39-C10] | no effect on PpIX accumulation across any of the tested concentrations | 207.3±10.7 | 227.1±3.5 | 214.3±6.4 | well tolerated at each concentration tested | 94.1±2.6 | 59.3±13.3 | ~2 | 5000 | 50.7±3.1 | 53.1±2.3 | 45.3±1.9 | 50.2±4.9 | a further increase in apoptosis and late apoptosis, with no apparent effect on necrotic cell death | 12.1±4.9
NC(=S)c1ccc(OC(=O)CCCCCCCCC[P+](c2ccccc2)(c2ccccc2)c2ccccc2)cc1 [AP123-C10] | no effect on PpIX accumulation across any of the tested concentrations | 237.4±8.2 | 245.3±10.6 | 248.1±15.1 | well tolerated at each concentration tested | – | 62.6±9.1 | ~2 | 5000 | 57.2±1.3 | 56.5±2.7 | 50.9±6.5 | 66.7±5.6 | a further increase in apoptosis and late apoptosis, with no apparent effect on necrotic cell death | 14.5±0.5
